Experimental data: US11364277B2, “Treatment of ascites” (BioVie Inc., priority 2015, dated 2022)
Several values for one entry are separate records, joined by “and”; a condition that tells them apart may be missing. Identical values can stand only once. Where a SMILES comes first, the peptide text is derived from it. Bridges are numbered along the chain shown (N, C = ends).

Legend:
[1] = tested on: HRS patients with diuretic intractable or refractory ascites; test: Example 2: six HRS patients with ascites treated with continuous infusion terlipressin, evaluated before, during and after treatment; format: in vivo, human; conditions: for Body Weight After / Plasma Sodium After / Serum Creatinine After / Serum Urea After: after treatment;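 for Serum Urea After: serum urea in mmol/L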;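 for Serum Urea During: serum urea in mmol/L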
Experimental: Six FIRS patients treated with continuous infusion terlipressin were evaluated for improvement in […]. All six patients had diuretic intractable or refractory ascites (5 of 6 with hyponatremia). The patients were evaluated for the following parameters before, during and after treatment: number of paracentesis procedures per month, volume of ascites removed, weight, serum sodium, urinary sodium excretion, serum creatinine, serum urea, and whether diuretics were included in the treatment regimen.

[2] = tested on: subjects with ascites due to liver cirrhosis, not type 1 or type 2 HRS; format: in vivo, human
Experimental: 15 subjects that are to be confirmed to have ascites, but not type 1 or type 2 HRS, due to liver cirrhosis will be administered continuous low dose (escalating from 2.0 to 3.0 mg per 24 hours) terlipressin via ambulatory infusion pump. […] Accordingly, continuous infusion pump (CIP) terlipressin represents a potentially life-saving solution for these seriously ill patients who are still ambulatory (have not yet been administered to the hospital for treatment) and have not developed type 1 or type 2 HRS.

[3] = human, in vivo; cited from earlier work
[4] = human, in vivo, cited from earlier work
[5] = Average (excludes patients #2, #3, #5)
[6] = Patient 1, max. dose 12 mg/day, 63 days
[7] = Patient 1, max. dose 12 mg/day, 63 days, diuretics during: A
[8] = Patient 2, max. dose 12 mg/day, 195 days
[9] = Patient 2, max. dose 12 mg/day, 195 days, diuretics during: None
[10] = Patient 3, max. dose 3 mg/day, 10 days
[11] = Patient 3, max. dose 3 mg/day, 10 days, diuretics during: None
[12] = Patient 4, max. dose 10 mg/day, 11 days
[13] = Patient 4, max. dose 10 mg/day, 11 days, diuretics during: None
[14] = Patient 5, max. dose 3 mg/day, 22 days
[15] = Patient 5, max. dose 3 mg/day, 22 days, diuretics during: None
[16] = Patient 6, max. dose 2 mg/day, 12 days
[17] = Patient 6, max. dose 2 mg/day, 12 days, diuretics during: F + A

With `NCCCC[C@H](NC(=O)[C@@H]1CCCN1C(=O)[C@@H]1CSSC[C@H](NC(=O)CNC(=O)CNC(=O)CN)C(=O)N[C@@H](Cc2ccc(O)cc2)C(=O)N[C@@H](Cc2ccccc2)C(=O)N[C@@H](CCC(N)=O)C(=O)N[C@@H](CC(N)=O)C(=O)N1)C(=O)NCC(N)=O` [terlipressin] (H-GGGCYFQNCPKG-NH2; disulfide 4-9) the “Plasma Sodium % Change” value ([1]; Average) was 5%, the “Plasma Sodium During” value ([1]; Average) was 135 mEq/L and the “Serum Creatinine % Change” value ([1]; Average) was −47%. The Serum Creatinine During ([1]; Average) was 127 µM, the “Serum Urea % Change” value ([1]; Average) was −45% and the “Serum Urea During” value ([1]; Average) was 15.1 mmol/L. The “Body Weight % Change” value ([1]; Average (excludes Patient #4)) was −11%, the “Body Weight During” value ([1]; Average (excludes Patient #4)) was 73 kg and the “Body Weight After” value ([1]; Average (excludes Patient #4)) was 87 kg. The “Paracenteses/Month % Change” value ([1]; Average (excludes patient #1)) was −32%, the “Volume Fluid Removed/Month % Change” value ([1]; Average (excludes patient #1)) was −55% and the “Volume Fluid Removed/Month During” value ([1]; Average (excludes patient #1)) was 14 L. The “Urinary Na over 24 hours % Change” value [1, 5] was 1632%, the “Urinary Na over 24 hours During” value [1, 5] was 127 mEq/24 hr and the “Plasma Sodium After” value ([1]; Average) was 136 mEq/L. For the same molecule, the Serum Creatinine After ([1]; Average) was 105 µM, the “Serum Urea After” value ([1]; Average) was 10.4 mmol/L and the “Plasma Sodium % Change” value [1, 6] was −2%. For the same molecule, the “Plasma Sodium During” value [1, 6] was 137 mEq/L, the “Serum Creatinine % Change” value [1, 6] was −24% and the Serum Creatinine During [1, 6] was 189 µM. For the same molecule, the “Serum Urea % Change” value [1, 6] was −72%, the “Serum Urea During” value [1, 6] was 8.8 mmol/L and the “Urinary Na over 24 hours % Change” value [1, 6] was 820%. The “Urinary Na over 24 hours During” value [1, 6] was 46 mEq/24 hr, the “Body Weight After” value [1, 6] was 74 kg and the “Body Weight % Change” value [1, 7] was −11%. For the same molecule, the “Body Weight During” value [1, 7] was 74 kg, the “Paracenteses/Month % Change” value [1, 7] was −100% and the “Paracenteses/Month During” value [1, 7] was 0 /Month. The “Plasma Sodium % Change” value [1, 8] was 2%, the “Plasma Sodium During” value [1, 8] was 128 mEq/L and the “Serum Creatinine % Change” value [1, 8] was −46%. The Serum Creatinine During [1, 8] was 208 µM, the “Serum Urea % Change” value [1, 8] was −37% and the “Serum Urea During” value [1, 8] was 23.2 mmol/L. For the same molecule, the “Urinary Na over 24 hours During” value [1, 8] was 301 mEq/24 hr, the “Body Weight % Change” value [1, 9] was 11% and the “Body Weight During” value [1, 9] was 71 kg. For the same molecule, the “Paracenteses/Month % Change” value [1, 9] was −25%, the “Paracenteses/Month During” value [1, 9] was 6 /Month and the “Volume Fluid Removed/Month % Change” value [1, 9] was −48%. For the same molecule, the “Volume Fluid Removed/Month During” value [1, 9] was 42 L, the “Plasma Sodium % Change” value [1, 10] was 2% and the “Plasma Sodium During” value [1, 10] was 136 mEq/L. The “Serum Creatinine % Change” value [1, 10] was −50%, the Serum Creatinine During [1, 10] was 116 µM and the “Serum Urea % Change” value [1, 10] was −46%. The “Serum Urea During” value [1, 10] was 9.1 mmol/L, the “Body Weight After” value [1, 10] was 128 kg and the “Plasma Sodium After” value [1, 10] was 140 mEq/L. For the same molecule, the Serum Creatinine After [1, 10] was 122 µM, the “Serum Urea After” value [1, 10] was 10.8 mmol/L and the “Body Weight % Change” value [1, 11] was −23%. For the same molecule, the “Body Weight During” value [1, 11] was 99 kg, the “Paracenteses/Month % Change” value [1, 11] was −50% and the “Paracenteses/Month During” value [1, 11] was 2 /Month. For the same molecule, the “Volume Fluid Removed/Month % Change” value [1, 11] was −65%, the “Volume Fluid Removed/Month During” value [1, 11] was 14 L and the “Plasma Sodium % Change” value [1, 12] was 15%. For the same molecule, the “Plasma Sodium During” value [1, 12] was 141 mEq/L, the “Serum Creatinine % Change” value [1, 12] was −67% and the Serum Creatinine During [1, 12] was 104 µM. The “Serum Urea % Change” value [1, 12] was −28%, the “Serum Urea During” value [1, 12] was 37.3 mmol/L and the “Urinary Na over 24 hours % Change” value [1, 12] was 1900%. For the same molecule, the “Urinary Na over 24 hours During” value [1, 12] was 20 mEq/24 hr, the “Paracenteses/Month % Change” value [1, 13] was 50% and the “Paracenteses/Month During” value [1, 13] was 3 /Month. The “Volume Fluid Removed/Month % Change” value [1, 13] was −36%, the “Volume Fluid Removed/Month During” value [1, 13] was 9 L and the “Plasma Sodium % Change” value [1, 14] was −2%. The “Plasma Sodium During” value [1, 14] was 128 mEq/L, the “Serum Creatinine % Change” value [1, 14] was −19% and the Serum Creatinine During [1, 14] was 55 µM. The “Serum Urea % Change” value [1, 14] was −17%, the “Serum Urea During” value [1, 14] was 5.3 mmol/L and the “Body Weight After” value [1, 14] was 77 kg. The Serum Creatinine After [1, 14] was 55 µM, the “Serum Urea After” value [1, 14] was 10.5 mmol/L and the “Body Weight % Change” value [1, 15] was −10%. For the same molecule, the “Body Weight During” value [1, 15] was 64 kg, the “Paracenteses/Month % Change” value [1, 15] was −33% and the “Paracenteses/Month During” value [1, 15] was 2 /Month. For the same molecule, the “Volume Fluid Removed/Month % Change” value [1, 15] was −71%, the “Volume Fluid Removed/Month During” value [1, 15] was 6 L and the “Plasma Sodium % Change” value [1, 16] was 19%. For the same molecule, the “Plasma Sodium During” value [1, 16] was 140 mEq/L, the “Serum Creatinine % Change” value [1, 16] was −54% and the Serum Creatinine During [1, 16] was 90 µM. For the same molecule, the “Serum Urea % Change” value [1, 16] was −68%, the “Serum Urea During” value [1, 16] was 6.6 mmol/L and the “Urinary Na over 24 hours % Change” value [1, 16] was 1869%. The “Urinary Na over 24 hours During” value [1, 16] was 315 mEq/24 hr, the “Body Weight After” value [1, 16] was 68 kg and the “Plasma Sodium After” value [1, 16] was 131 mEq/L. The Serum Creatinine After [1, 16] was 137 µM, the “Serum Urea After” value [1, 16] was 10.0 mmol/L and the “Body Weight % Change” value [1, 17] was −14%. For the same molecule, the “Body Weight During” value [1, 17] was 55 kg, the “Paracenteses/Month % Change” value [1, 17] was −100% and the “Paracenteses/Month During” value [1, 17] was 0 /Month. The “Volume Fluid Removed/Month % Change” value [1, 17] was −100%, the “Volume Fluid Removed/Month During” value [1, 17] was 0 L and the “overall average decrease of urea concentration in blood serum” value ([1]; all patients, during treatment) was 45%. The “reduction of average monthly ascites fluid volume removed” value ([1]; during continuous infusion therapy vs prior to initiation) was 55%, the “decrease of average body weight per patient” value ([1]; during therapy, proxy for ascitic fluid accumulation) was 11% and 9 kg and ~19.8 lbs and the “improvement of ascites seen without diuretics” value ([1]; during treatment, number of patients) was “four of six patients”. For the same molecule, the “plasma sodium after the cessation of therapy” value ([1]; patient #6) was “remained normal”, the “correction of severe hyponatremia” value ([1]; patients #4 and #6) was “corrected severe hyponatremia in two patients” and the “average urinary sodium after starting therapy” value ([1]; three of six patients with data before and after starting continuous infusion, increased from 7) was 127 mEq/24 h. The “average decrease in serum creatinine levels” value ([1]; treated group of patients) was 47%, the “severity of ascites and accumulation of ascites fluid” value ([2]; 2.0 to 3.0 mg per 24 hours escalating, 1 day to 28 days, expected) was “decrease the severity of ascites and the accumulation of ascites fluid” and the “average amount of fluid withdrawn after beginning therapy” value ([2]; compared to prior to the start of treatment, expected) was “significantly less than prior to the start of treatment”. For the same molecule, the “number of paracentesis procedures required over a 28-day period” value ([2]; compared to the 28-day period prior to treatment inception, expected) was “reduce the number of paracentesis procedures”, the “safety of continuous infusion pump terlipressin” value ([2]; human, in vivo) was “no serious side effects” and the half-life [3] was 26 min. The “patients with side effects” value ([4]; iv) was “up to 40%” and the “patients with severe side effects requiring discontinuation of treatment” value [4] was “up to 10%”.
